Test results: US12310946B2, “Pharmaceutical composition for oral administration of edaravone and method of administering same” (MITSUBISHI TANABE PHARMA CORPORATION, priority 2020, dated 2025)
Where two headings read alike, the source gives them in different places.

How the values were obtained:
[1] = Clinical study #3: PK of edaravone oral formulation (formula #3), fasted vs after high-fat, standard or light meal; analysis of variance; assay type: in vivo, human; settings: 105 mg oral; for Cmax Max: in ng/mL; for AUC(0-inf) / Cmax / Tmax / half-life: male, human, plasma, po, 105 mg
Method: Effects of meal consumption before administration of the edaravone oral formulation on the pharmacokinetics of edaravone were evaluated. Specifically, clinical studies #1, #2, and #3 described below were conducted on separate days in Japanese healthy adult male subjects. In each of clinical studies #1, #2, and #3, one dose each of edaravone oral formulations (edaravone suspensions) of formulas #1, #2, and #3 shown in Table 1 below were used respectively and administered orally once during the study period. For each clinical study, a reference study was conducted (reference example), in which the edaravone oral formulation was administered in fasted conditions as described below, and in each clinical study and the corresponding reference study, the edaravone oral formulation was each administered to the same subjects.
For the high-fat meal, a meal with total calories per meal of 800 to 1000 kilocalories and calorie intake from lipid of 50% was used. For the standard meal, a meal with total calories per meal of 400 to 500 kilocalories and calorie intake from lipid of 25% was used. For the light meal, a liquid-type nutritional supplement with total calories per meal of 250 kilocalories (enteral nutritional supplement: Ensure Liquid (trade name)) was used.
As examples, the edaravone oral formulation (formula #3) was administered orally to each subject of 8 hours after high-fat meal consumption, 4 hours after standard meal consumption, and 2 hours after light meal consumption. Blood samples were each collected before the administration, and 5 minutes, 15 minutes, 30 minutes, 45 minutes, 1 hour, 1.5 hours, 2 hours, 4 hours, 6 hours, 8 hours, 10 hours, 12 hours, 24 hours, 36 hours, and 48 hours after the administration, and the concentrations of unchanged edaravone in plasma were measured. In addition, as a comparative example, the edaravone oral formulation was administered orally to the same subjects 2 hours after standard meal consumption, blood samples were collected, and the concentrations of unchanged edaravone in plasma were measured in the same manner. On the other hand, as a reference example, the edaravone oral formulation was administered orally to the same subjects in fasted conditions, blood samples were collected, and the concentrations of unchanged edaravone in plasma were measured in the same manner. For the administration in fasted conditions, the edaravone oral formulation was administered orally after a lapse of 10 hours or longer from the previous meal consumption. None of the subjects consumed a next meal until the blood sample collection 4 hours after the administration was completed.
That is, from the results of the edaravone PK parameters, an analysis of variance was conducted on the AUC and Cmax in consideration of the meal condition. The spaghetti plots in FIG. 1 show results from individual subjects, in which results from the same subjects are connected with lines between results in the administration in fasted conditions and results in the postprandial administration.

[2] = Caco-2 cell monolayer membrane permeability test; settings: human, Caco-2, pH 7.4
Method: (§1) Caco-2 cells were seeded on a 24-well plate, cultured at 37° C. for 21 to 23 days in a CO2 incubator, and then a Caco-2 cell monolayer membrane permeability test was conducted. After checking the membrane resistance value of the cell layer after the culture, the culture medium in the plate was replaced with HBSS (pH 7.4). […] For the control compounds, [^3H]propranolol as a high membrane permeability control and [^14C]mannitol as a low membrane permeability control were used.

Caco-2 cells = experiment: Caco-2 cell monolayer membrane permeability test
Method: as §1

[3] = Clinical studies #7 and #8: edaravone oral dose vs AUC (4-parameter logistic model) compared with 60-mg intravenous administration; assay type: in vivo; settings: human, plasma; approved 60-mg edaravone intravenous administration formulation (60 mg/60 min)
Method: Specifically, clinical studies #7 and #8 described below were conducted in healthy adult male subjects for each subject group. In clinical studies #7 and #8, one dose each of edaravone oral formulations (edaravone suspensions) of formulas #7 and #8 shown in Table 11 below were used respectively and administered orally once during the study period.
Any of the edaravone oral formulations (formula #7) with an edaravone content of 30 mg, 60 mg, 120 mg, 200 mg, or 300 mg was administered orally to subjects in fasted conditions after a lapse of 10 hours or longer from consumption of a meal. The edaravone oral formulations with each content were each administered orally to 6 subjects. Blood samples were each collected before the administration, and 15 minutes, 30 minutes, 1 hour, 1.5 hours, 2 hours, 4 hours, 6 hours, 8 hours, 12 hours, 24 hours, 36 hours, and 48 hours after the administration, the concentrations of unchanged edaravone were measured, and the AUCs were calculated.
The edaravone oral formulations (formula #8) with an edaravone content of 100 mg was administered orally to 9 subjects in fasted conditions after a lapse of 10 hours or longer from consumption of a meal. […]

[4] = 2 h after standard meal vs fasted
[5] = 4 h after standard meal vs fasted
[6] = 8 h after high-fat meal vs fasted
[7] = formula #3, 2 h after light meal, mean (n = 16)
[8] = formula #3, 2 h after standard meal, mean (n = 16)
[9] = formula #3, 4 h after standard meal, mean (n = 16)
[10] = formula #3, 8 h after high-fat meal, mean (n = 16)
[11] = formula #3, fasted, mean (n = 16)

Q: With CC1=NN(c2ccccc2)C(=O)C1 [Edaravone, 3-methyl-1-phenyl-2-pyrazolin-5-one] as the molecule, how does the “change in the AUC in comparison with fasted” value (from here on “change in the AUC”) ([1]; 2 h after light meal vs fasted) read?
A: Its value is “no decrease and →”.

Q: What about the “change in the Cmax in comparison with fasted” value (from here on “change in the Cmax”) ([1]; 2 h after light meal vs fasted) of the same molecule?
A: The value was “no decrease and →”.

Q: And the “decrease in the AUC in comparison with fasted” value [1, 4]?
A: The value was “(21% ↓)”.

Q: What about the “decrease in the Cmax in comparison with fasted” value [1, 4] of the same molecule?
A: Its value is “(45% ↓)”.

Q: And the Cmax Min ([1]; 2 hours after light meal)?
A: Its Cmax Min is 388 ng/mL.

Q: And the “Cmax Max” value ([1]; 2 hours after light meal)?
A: Its value is 3237.

Q: What about the “change in the AUC” value [1, 5] of the same molecule?
A: Its value is “no decrease and →”.

Q: And the “change in the Cmax” value [1, 5]?
A: Its value is “no decrease and →”.

Q: And the Cmax Min ([1]; 4 hours after standard meal)?
A: Its Cmax Min is 642 ng/mL.

Q: And the “Cmax Max” value ([1]; 4 hours after standard meal)?
A: The value was 4286.

Q: And the “change in the AUC” value [1, 6]?
A: Its value is “no decrease and →”.

Q: What about the “change in the Cmax” value [1, 6] of the same molecule?
A: Its value is “no decrease and →”.

Q: And the Cmax Min ([1]; 8 hours after high-fat meal)?
A: The Cmax Min was 595 ng/mL.

Q: And the “Cmax Max” value ([1]; 8 hours after high-fat meal)?
A: Its value is 5270.

Q: And the Cmax Min ([1]; fasted)?
A: The Cmax Min was 797 ng/mL.

Q: What about the “Cmax Max” value ([1]; fasted) of the same molecule?
A: The value was 4816.

Q: What about the AUC(0-inf) ([1]; 2 hours after light meal, analysis of variance, read-out: AUC0-∞ Least-square mean) of the same molecule?
A: The AUC(0-inf) was 1880 ng·h/mL.

Q: What about the Cmax ([1]; 2 hours after light meal, analysis of variance, read-out: Cmax Least-square mean) of the same molecule?
A: The Cmax was 1660 ng/mL.

Q: What about the Cmax ([1]; 2 hours after light meal, read-out: Cmax Median) of the same molecule?
A: Its Cmax is 1960 ng/mL.

Q: And the AUC(0-inf) ([1]; 4 hours after standard meal, analysis of variance, read-out: AUC0-∞ Least-square mean)?
A: Its AUC(0-inf) is 1990 ng·h/mL.

Q: What about the Cmax ([1]; 4 hours after standard meal, analysis of variance, read-out: Cmax Least-square mean) of the same molecule?
A: Its Cmax is 1760 ng/mL.

Q: And the Cmax ([1]; 4 hours after standard meal, read-out: Cmax Median)?
A: The Cmax was 1740 ng/mL.

Q: What about the AUC(0-inf) ([1]; 8 hours after high-fat meal, analysis of variance, read-out: AUC0-∞ Least-square mean) of the same molecule?
A: The AUC(0-inf) was 2120 ng·h/mL.

Q: And the Cmax ([1]; 8 hours after high-fat meal, analysis of variance, read-out: Cmax Least-square mean)?
A: The Cmax was 2190 ng/mL.

Q: What about the Cmax ([1]; 8 hours after high-fat meal, read-out: Cmax Median) of the same molecule?
A: Its Cmax is 2240 ng/mL.

Q: What about the Cmax ([1]; fasted and each postprandial administration alike, read-out: Cmax, median of values of each subject) of the same molecule?
A: Its Cmax is roughly 2000 ng/mL.

Q: And the Cmax ([1]; fasted and each postprandial administration alike, read-out: Cmax, range of values of each subject)?
A: The Cmax was 1000 to 5000 ng/mL.

Q: What about the AUC(0-inf) ([1]; fasted, analysis of variance, read-out: AUC0-∞ Least-square mean) of the same molecule?
A: The AUC(0-inf) was 2070 ng·h/mL.

Q: What about the Cmax ([1]; fasted, analysis of variance, read-out: Cmax Least-square mean) of the same molecule?
A: Its Cmax is 2020 ng/mL.

Q: What about the Cmax ([1]; fasted, read-out: Cmax Median) of the same molecule?
A: Its Cmax is 1990 ng/mL.

Q: What about the Tmax [1, 7] of the same molecule?
A: Its Tmax is 0.41 h.

Q: What about the half-life [1, 7] of the same molecule?
A: The half-life was 7.31 h.

Q: And the AUC(0-inf) ([1]; formula #3, 2 h after light meal, mean (n = 16), read-out: AUC0-∞)?
A: Its AUC(0-inf) is 1960 ng·h/mL.

Q: And the Cmax ([1]; formula #3, 2 h after light meal, mean (n = 16), read-out: Cmax)?
A: The Cmax was 1900 ng/mL.

Q: What about the Tmax [1, 8] of the same molecule?
A: The Tmax was 0.63 h.

Q: And the half-life [1, 8]?
A: The half-life was 11.2 h.

Q: What about the AUC(0-inf) ([1]; formula #3, 2 h after standard meal, mean (n = 16), read-out: AUC0-∞) of the same molecule?
A: Its AUC(0-inf) is 1720 ng·h/mL.

Q: What about the Cmax ([1]; formula #3, 2 h after standard meal, mean (n = 16), read-out: Cmax) of the same molecule?
A: The Cmax was 1280 ng/mL.

Q: What about the Tmax [1, 9] of the same molecule?
A: The Tmax was 0.44 h.

Q: What about the half-life [1, 9] of the same molecule?
A: Its half-life is 9.05 h.

Q: And the AUC(0-inf) ([1]; formula #3, 4 h after standard meal, mean (n = 16), read-out: AUC0-∞)?
A: Its AUC(0-inf) is 2070 ng·h/mL.

Q: What about the Cmax ([1]; formula #3, 4 h after standard meal, mean (n = 16), read-out: Cmax) of the same molecule?
A: The Cmax was 2020 ng/mL.

Q: What about the Tmax [1, 10] of the same molecule?
A: The Tmax was 0.36 h.

Q: What about the half-life [1, 10] of the same molecule?
A: The half-life was 7.38 h.

Q: What about the AUC(0-inf) ([1]; formula #3, 8 h after high-fat meal, mean (n = 16), read-out: AUC0-∞) of the same molecule?
A: Its AUC(0-inf) is 2210 ng·h/mL.

Q: What about the Cmax ([1]; formula #3, 8 h after high-fat meal, mean (n = 16), read-out: Cmax) of the same molecule?
A: The Cmax was 2520 ng/mL.

Q: What about the Tmax [1, 11] of the same molecule?
A: The Tmax was 0.38 h.

Q: And the half-life [1, 11]?
A: The half-life was 8.17 h.

Q: What about the AUC(0-inf) ([1]; formula #3, fasted, mean (n = 16), read-out: AUC0-∞) of the same molecule?
A: The AUC(0-inf) was 2160 ng·h/mL.

Q: And the Cmax ([1]; formula #3, fasted, mean (n = 16), read-out: Cmax)?
A: The Cmax was 2320 ng/mL.

Q: What about the Papp A→B at 2 h, 100 μmol/L [2] of the same molecule?
A: The Papp A→B at 2 h, 100 μmol/L was 32 ± 1.7 ×10⁻⁶ cm/s.

Q: What about the “membrane permeability relative to high permeability control” value (Caco-2 cells; Caco-2, vs propranolol) of the same molecule?
A: The value was “equal to or higher than that of propranolol”.

Q: What about the “permeability classification under Biopharmaceutics Classification System” value (Caco-2 cells; based on Caco-2 membrane permeability test) of the same molecule?
A: The value was “high permeability compound”.

Q: And the AUC [3]?
A: Its AUC is 1740 ng·h/mL.
